Patent US9714245B2, “Carboline compounds usable in the treatment of neurodegenerative diseases” (ALZPROTECT, priority 2013, dated 2017)

Tests used:
AICD = test: Quantification of AICD by Western blot in SY5Y-APPWT cells; assay type: cell-based, Human; settings: compared to a control with a value of 100
Procedure: (§1) Quantifications of APP-CTFs and AICD
(§2) After treatment, SY5Y-APP^WT cells were scrapped and lysed in 1× Lysis Buffer (250 mM NaCl, 50 mM Tris, pH 8.8, 5 mM EDTA, 2.5% Triton X-100, 1% Deoxycholate, 0.1% SDS). For the Western blotting, an equal amount of total proteins (20 μg/lane) was loaded on a 16.5% Tris-Tricine or 8-16% Tris-Glycine polyacrylamide gel.
(§3) SDS-polyacrylamide gel electrophoresis (PAGE) was performed using the Criterion™ Tris-Tricine-precast or Bis-Tris-precast criterion gels (Bio-Rad Bioresearch division). Proteins were transferred to a […] nitrocellulose membrane (Hybond, Amersham Biosciences) at 2.5 mA/cm2 per gel using the Criterion™ Blotter system (Amersham Biosciences), according to the manufacturer's instructions. Proteins were reversibly stained with Ponceau Red in order to check the quality of the transfer of protein. The membranes were blocked in 25 mM Tris-HCl pH 8.0, 150 mM NaCl, 0.1% Tween-20 (v/v) and 5% (w/v) of skimmed milk for 30 min. Membranes were incubated overnight at 4° C. with appropriate dilution of the primary antibodies, and were incubated for 1 h at room temperature with secondary antibody. […] Quantifications were calculated with Image J software (NIH) and the data were collected using Excel Software (Microsoft). The loading variations between Western blot lanes were normalized according to the tubulin signal. Quantification of CTFα and AICD were compared to control conditions (considered as 100 in arbitrary units) and are presented for two concentrations of the drug: 1 and 10 μM.

secreted Aβ1-42 = test: Aβ1-42 secretion by APP-transfected neuroblastoma cells (ELISA); assay type: cell-based; settings: Homo sapiens, Neuroblastoma cell; SKNSH-SYSY APPWT cells; concentration decreasing secreted Aβ1-42 to 50% of basal amount
Procedure: (§4) Cell Cultures and Transfections to Test Activity on Aβ1-40 and Aβ1-42 Secretion
(§5) Human neuroblastoma cell line SKNSH-SYSY (ATCC® Catalog No. CRL-2266™), HEK (ATCC® CRL-1573™) and COS-1 (ATCC® CRL-1650™) cells were maintained in Dulbecco's modified Eagle medium (DMEM, GIBCO BRL) supplemented with 10% fetal calf serum, 2 mM L-glutamine, 1 mM non-essential amino acids, 50 units/ml penicillin/streptomycin (Invitrogen, France) in a 5% CO2 humidified incubator at 37° C. APP695 cDNA was subcloned into eukaryotic expression vector pcDNA3 (Invitrogen), allowing for a G418 (Invitrogen) selection of clones. This APP cDNA coding for the 695 amino acid long isoform was transfected into SKNSH-SYSY cells using the ethyleneimine polymer ExGen 500 (Euromedex) according to the manufacturer's instructions. The cells expressing APP (SKNSH-SYSY APP^WT) were selected by the addition of 200 μg/ml G418 in the cell medium. To quantify AR which released in the cell culture medium, the collected medium was spun at 200×g to eliminate the cell debris. The concentrations of secreted Aâ1-40 and Aβ1-42 were determined using the Human Aβ (1-40) Assay Kit (IBL) or the INNOTEST™ beta-Amyloid (1-42) ELISA Kit (Innogenetics), according to manufacturer's instructions. The results were expressed as IC50, i.e. the concentration able to decrease to 50% the basal amount of secreted Aβ peptide 1-40 and 1-42.

secreted Aβ1-40 = test: Aβ1-40 secretion by APP-transfected neuroblastoma cells (ELISA); assay type: cell-based; settings: Homo sapiens, Neuroblastoma cell; SKNSH-SYSY APPWT cells; concentration decreasing secreted Aβ1-40 to 50% of basal amount
Procedure: as §4, §5

[1] = Cytotoxicity evaluation (MTS assay); assay type: cell-based, Human; settings: human, SY5Y-APPWT neuroblastoma cells (expressing APP); SY5Y-APPWT cells, 24 h treatment, MTS
Procedure: Human neuroblastoma cell line SY5Y-APP^WT was used to assess the cytotoxic effects of each compound. SY5Y-APP^WT cells were seeded at 20000 cells/well onto 96-well plates and were cultured in Dulbecco's modified Eagle medium (DMEM, Invitrogen) supplemented with 10% fetal calf serum (PAA), 2 mM L-glutamine (Invitrogen), 1 mM non-essential amino acids (Invitrogen), 50 units/ml penicillin/streptomycin (Invitrogen), and 200 μg G418=geneticin (Invitrogen) (selection for cells expressing APP) in a 5% CO2 humidified incubator at 37° C. After 24 h, the cells were washed and incubated with the compound at 0.1; 0.3; 1; 3; 10; 30 and 100 μM or with DMSO as control diluted in the same culture medium at 37° C. in 5% CO2. After 24 h of treatment, cytotoxicity was determined by using colorimetric MTS assay (CellTiter 96® Aqueous One Solution Cell Proliferation Assay-MTS Promega) according to the protocol of the manufacturer. Absorbance was read at 490 nm and results were expressed as % from control condition considered as 100%.

CTFα = test: Quantification of APP-CTFα by Western blot in SY5Y-APPWT cells; assay type: cell-based, Human; settings: compared to a control with a value of 100
Procedure: as §1, §2, §3

[2] = molecular target: T1, HIS-tagged valosin-containing protein/p97 (VCP/p97) (Homo sapiens, UniProt P55072); test: VCP interaction assay (competition with biotinylated probe 4.7); assay type: binding; settings: compound 60 μM against biotinylated probe 4.7 20 μM
T1 construct: purchased TebuBio
T1 sequence (P55072 whole entry): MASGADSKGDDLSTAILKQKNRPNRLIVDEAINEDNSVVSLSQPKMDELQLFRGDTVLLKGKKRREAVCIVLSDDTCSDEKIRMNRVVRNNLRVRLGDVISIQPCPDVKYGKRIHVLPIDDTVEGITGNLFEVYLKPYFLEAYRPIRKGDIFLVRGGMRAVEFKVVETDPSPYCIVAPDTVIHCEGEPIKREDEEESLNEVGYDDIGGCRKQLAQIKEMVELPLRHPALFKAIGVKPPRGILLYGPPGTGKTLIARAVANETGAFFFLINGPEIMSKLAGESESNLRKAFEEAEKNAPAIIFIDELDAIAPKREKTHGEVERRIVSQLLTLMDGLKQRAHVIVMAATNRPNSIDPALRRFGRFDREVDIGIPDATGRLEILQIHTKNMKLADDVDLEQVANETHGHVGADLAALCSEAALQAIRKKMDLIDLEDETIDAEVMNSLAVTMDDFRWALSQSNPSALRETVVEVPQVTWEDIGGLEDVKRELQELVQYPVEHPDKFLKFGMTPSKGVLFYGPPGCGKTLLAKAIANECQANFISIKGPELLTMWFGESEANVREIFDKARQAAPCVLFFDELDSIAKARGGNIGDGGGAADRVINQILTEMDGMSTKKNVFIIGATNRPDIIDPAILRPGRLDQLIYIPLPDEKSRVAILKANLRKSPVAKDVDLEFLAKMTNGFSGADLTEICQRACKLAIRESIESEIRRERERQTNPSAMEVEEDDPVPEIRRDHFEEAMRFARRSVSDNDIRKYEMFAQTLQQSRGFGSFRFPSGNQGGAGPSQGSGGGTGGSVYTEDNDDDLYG
Procedure: Physical interaction between HIS-tagged valosin-containing protein/p97 (VCP/p97) (TebuBio) and biotinylated probe 4.7 was investigated by Enzyme-Linked Assay (ELA) based on HIS-Select® High Sensitivity Nickel coated plates, used following manufacturer's recommendations (Sigma Aldrich). Other chemical compounds were tested in competition with the biotinylated probe 4.7 in this system. Briefly, nickel beads were incubated overnight at 4° C. with 2% casein blocking solution. After a three-time rinse with wash buffer (0.05% Tween20 in phosphate buffer saline), HIS-tagged VCP/p97 protein (5 μg/ml in PBS) was incubated with nickel beads for 90 min at 25° C. Then, the plate was washed three times. Chemical compounds (60 μM) were incubated 10 min at 25° C. before addition of biotinylated probe 4.7 (20 μM) 30 min at 25° C. After five washes, streptavidin-peroxidase (2 μg/ml) was added during 1 h at 25° C., followed by the peroxidase substrate addition 30 min at RT. Reaction was stopped with 0.5M H2SO4 solution and the optical density was read at 450 nm using a microplate reader (VICTOR X4 Wallac, 2030-0040, PerkinElmer). Competition efficiency was quantified by the loss of signal compared to the control condition.

Row | Compound | IC50 (secreted Aβ1-42) | IC50 (secreted Aβ1-40) | VCP (competition efficiency, loss of signal compared to the control) [2] | AICD (10 μM) (AICD) | CC50 at 24 h [1] | CTFα (10 μM) (CTFα)
1 | COc1ccc2[nH]c3c(c2c1)CN(CCCN1CCN(CCCN(CC(C)C)CC(C)C)CC1)CC3 [Compound 3.1b, N,N-diisobutyl-3-(4-(3-(8-methoxy-1,3,4,5-tetrahydro-1H-pyrido[4,3-b]indol-2-yl)propyl)piperazin-1-yl)propylamine] |  |  |  | 16400 arbitrary units | > 10 µM | 
2 | Cc1ccc2[nH]c3c(c2c1)CN(CCCN1CCN(CCCN(CC(C)C)CC(C)C)CC1)CC3 [Compound 3.1c, N,N-diisobutyl-3-[4-(3-(8-methyl-1,3,4,5-tetrahydro-1H-pyrido[4,3-b]indol-2-yl)propyl)piperazin-1-yl]propylamine] | 10 µM | 1 µM |  |  | 10 µM | 355 arbitrary units
3 | COc1ccc2[nH]c3c(c2c1)CN(CCCN1CCN(CCN(CC(C)C)CC(C)C)CC1)CC3 [Compound 3.1g, N,N-diisobutyl-2-(4-(3-(8-methoxy-1,3,4,5-tetrahydro-1H-pyrido[4,3-b]indol-2-yl)propyl)piperazin-1-yl)ethylamine] | 3.5 µM | 2.5 µM |  |  |  | 
4 | Fc1ccc2[nH]c3c(c2c1)CN(CCCN1CCN(CCCN(Cc2ccccc2)Cc2ccccc2)CC1)CC3 [Compound 3.1h, N,N-dibenzyl-3-[4-(3-(8-fluoro-1,3,4,5-tetrahydro-1H-pyrido[4,3-b]indol-2-yl)propyl)piperazin-1-yl]propylamine] | 2.5 µM | 2.5 µM |  |  | 4.8 µM | 
5 | CC(C)CN(CCCN1CCN(CCCN2CCc3c([nH]c4ccccc34)C2c2ccccc2)CC1)CC(C)C (stereo not drawn) [Compound 3.2a, N,N-diisobutyl-3-{4-[3-(1-phenyl-1,3,4,9-tetrahydro-1H-beta-carbolin-2-yl)propyl]piperazin-1-yl}propylamine] | 5 µM | 2 µM |  |  |  | 
6 | CN(C)CCCN1CCN(CCCN2CCc3c([nH]c4ccccc34)C2c2ccccc2)CC1 (stereo not drawn) [Compound 3.2e, N,N-dimethyl-3-(4-(3-(1-phenyl-1,3,4,9-tetrahydro-1H-beta-carbolin-2-yl)propyl)piperazin-1-yl)propylamine] | 2 µM | 2.5 µM |  | 4765 arbitrary units | 12 µM | 234 arbitrary units
7 | CC(C)CN(CCN1CCN(CCCN2CCc3c([nH]c4ccccc34)C2)CC1)CC(C)C [Compound 3.2h, N,N-diisobutyl-2-{4-[3-(1,3,4,9-tetrahydro-1H-beta-carbolin-2-yl)propyl]piperazin-1-yl}ethylamine] | 3 µM | 3 µM |  |  |  | 

Further lines, with some results ahead:

Row | IC50 (secreted Aβ1-42) | IC50 (secreted Aβ1-40) | VCP (competition efficiency, loss of signal compared to the control) [2] | Compound | AICD (10 μM) (AICD) | CC50 at 24 h [1] | CTFα (10 μM) (CTFα)
8 | 2.1 µM | 1.2 µM |  | CC(C)CN(CCCN1CCN(CCCN2CCc3[nH]c4ccccc4c3C2)CC1)CC(C)C [Compound 3.1a, N,N-diisobutyl-3-[4-(3-(1,3,4,5-tetrahydro-1H-pyrido[4,3-b]indol-2-yl)propyl)piperazin-1-yl]propylamine] | 1081 arbitrary units |  | 
9 | > 10 µM | 10 µM |  | COc1ccc2[nH]c3c(c2c1)CN(CCCN1CCN(CCCN2CCCCC2)CC1)CC3 [Compound 3.1i, 3-(4-(3-(8-methoxy-1,3,4,5-tetrahydro-1H-pyrido[4,3-b]indol-2-yl)propyl)piperazin-1-yl)propylpiperidine] |  | > 100 µM | 
10 | > 10 µM |  |  | CC(C)CN(CCCN1CCN(CCCN2CCc3c([nH]c4ccc(Cl)cc34)C2)CC1)CC(C)C [Compound 3.2b, N,N-diisobutyl-3-{4-[3-(6-chloro-1,3,4,9-tetrahydro-1H-beta-carbolin-2-yl)propyl]piperazin-1-yl}propylamine] | 7417 arbitrary units | > 100 µM | 716 arbitrary units
11 | > 10 µM | > 10 µM | 70% | CN(C)CCCN1CCN(CCCN2CCc3c([nH]c4ccccc34)C2)CC1 [Compound 3.2d, N,N-dimethyl-3-(4-(3-(1,3,4,9-tetrahydro-1H-beta-carbolin-2-yl)propyl)piperazin-1-yl)propylamine] | 41661 arbitrary units | > 100 µM | 1042 arbitrary units
12 | 5 µM | 5 µM |  | c1ccc2c3c([nH]c2c1)CN(CCCN1CCN(CCCN2CCCCC2)CC1)CC3 [Compound 3.2i, 1-[3-(piperidin-1-yl)propyl]-4-(3-{1H,2H,3H,4H,9H-pyrido[3,4-b]indol-2-yl}propyl)piperazine] |  | > 100 µM | 
13 | 3 µM | 5 µM |  | c1ccc2c3c([nH]c2c1)CN(CCCN1CCN(CCN2CCCCC2)CC1)CC3 [Compound 3.2j, 1-[2-(piperidin-1-yl)ethyl]-4-(3-{1H,2H,3H,4H,9H-pyrido[3,4-b]indol-2-yl}propyl)piperazine] |  | > 100 µM | 
